{"source": "patent US9975853B2", "about": "“Tetrahydroisoquinolinone derivatives and their use in the inhibition of the HSP70 protein” (Julius-Maximilians-Universitaet Wuerzburg, priority 2014, dated 2018)", "format_in_all_cases": "cell-based, human", "key": {"[1]": {"tested_on": "INA-6", "test": "Cell viability assay (annexin V-FITC/propidium iodide, flow cytometry) in INA-6 multiple myeloma cells", "procedure": "(§1) The effect of pharmacological Hsp70 inhibition on cell viability was analyzed after 72 hours of treatment in both non-malignant (mononuclear cells from the peripheral blood) and malignant lymphocytes (multiple myeloma cells). The mononuclear cells were separated from the peripheral blood of healthy donors by Ficoll-Hypaque density gradient centrifugation. The human cell line INA-6 represents a well-established model for multiple myeloma. The percentage of viable and apoptotic cell fractions was assessed using an annexin V-FITC/propidium iodide (PI) staining kit (Bender MedSystems, Vienna, Austria) according to manufacturer's instructions. In brief, cells were washed in PBS, incubated for 10 min in 100 ml binding buffer (10 mM HEPES/NaOH, pH 7.4, 140 mM NaCl, 2.5 mM CaCl2) containing 2.5 ml annexin V-FITC mix and 1 mg/ml propidium iodide (PI), subsequently diluted with 100 ml binding buffer and analyzed by flow cytometry (FACSCalibur/CELLQuest; Becton Dickinson, Heidelberg, Germany). Whereas viable cells are negative for both, annexin V-FITC and PI, early apoptotic cells show a positive annexin V-FITC staining, and cells in a late apoptotic stage which lose their membrane integrity additionally incorporate DNA-binding PI. To establish kill curves, concentrations of the tested compounds were titrated, and the measured viable cell fractions were further analyzed using the Prism Calculation Software (GraphPad Software Inc., La Jolla, USA).\nIn FIG. 2A Western blot analyses of caspases 9 and 3, and the caspase substrate PARP (upper panel), and viability analyses (lower panel) of INA-6 MM cells upon treatment with trans-7b for 24 hours are shown. INA-6 cells were either incubated with DMSO (as a solvent control) or with 0.6 μM of trans-7b, and additionally incubated either with DMSO or the pan-caspase inhibitor Z-VAD-FMK prior to analyses by Western or viability assessment (without Z-VAD-FMK co-treatment) by Annexin V/propidum iodide double staining. For Western analyses INA-6 cell pellets were dissolved in lysis buffer (20 mM HEPES (pH 7.9), 350 mM NaCl, 1 mM MgCl2, 0.5 mM EDTA, 0.1 mM EGTA, 1% NP40, 0.5 mM dithiothreiol (DTT), 1 mM Na3VO4, 0.1 mM PMSF and 1 μg/ml aprotinin). Lysates were cleared by centrifugation, measured by quantitative protein assay (Bio-Rad, München, Germany) and subjected to SDS gel electrophoresis. Proteins were transferred onto nitrocellulose membranes (Schleicher & Schuell, Dassel, Germany), incubated with antibodies specific for caspase 9, caspase 3 or PARP (Cell Signaling Technology, Frankfurt a.Main, Germany) according to standard procedures and visualized with secondary anti-rabbit horseradish peroxidase (HRP)-conjugated antibodies using an enhanced chemoluminescence detection system (ECL, Amersham, Freiburg, Germany). […] Annexin V/propidium iodide (PI) staining was performed using a fluorescein isothiocyanate (FITC) conjugated recombinant human annexin/propidium iodide kit (BenderMedSystems, Vienna, Austria) according to the manufacturer's instructions. INA-6 cells were washed in PBS, incubated for 15 minutes in 100 ml binding buffer (10 mM HEPES/NaOH, pH 7.4, 140 mM NaCl, 2.5 mM CaCl2) containing 2.5 mL annexin V-FITC mix and 1 mg/ml PI and analyzed by flow cytometry (FACSCalibur/CELLQuest; Becton Dickinson, Heidelberg, Germany). Whereas early apoptosis is characterized by positive annexin V-FITC staining reaction, cells in a late apoptotic stage lose their membrane integrity and additionally incorporate PI. Thus, the fraction of viable cells remains negative for both annexin V-FITC and PI. […] Based on the above described experiments also viability analyses of INA-6 in comparison with non-malignant PBMCs were performed choosing a longer incubation time (72 hours) as shown in FIG. 2B or C. Raw data of three independent experiments have been calculated to establish means, standard deviation and dose-effect curves of trans-7b."}, "[2]": {"tested_on": "peripheral blood mononuclear cells (PBMCs)", "test": "Cell viability assay in non-malignant peripheral blood mononuclear cells", "conditions": "72 hours", "procedure": "as §1, with “Whereas viable cells are negative for both, annexin V-FITC and PI, early apoptotic cells show a positive annexin V-FITC staining, and cells in a late apoptotic stage which lose their membrane integrity additionally incorporate DNA-binding PI.” left out, “USA). […]” for “USA).”"}, "[3]": {"tested_on": "caspases 9 and 3", "test": "Apoptosis assay: cleavage and activation of caspases 9 and 3, PARP cleavage in INA-6 cells (Western blot)", "conditions": "INA-6, 0.6 μM, 24 hours", "procedure": "Apoptosis Assays. Hsp70-dependent prevention of apoptosis was investigated by analyses of the apoptosis-inducing factors (AIF) and of the caspases 9 and 3 in INA-6 cells. INA-6 cells were treated with 0.6 μM of compound trans-7b for 8 hours prior to analyze nuclear translocation of AIF. Staining of the nuclear protein lamin A was used as a loading control. […] Analysis of cleavage of the bona fide caspase substrate PARP served as a control for caspase activation. Co-treatment with the pan-caspase inhibitor Z-VAD-FMK (50 μM) was employed as another specificity control.\nIn FIG. 2A Western blot analyses of caspases 9 and 3, and the caspase substrate PARP (upper panel), and viability analyses (lower panel) of INA-6 MM cells upon treatment with trans-7b for 24 hours are shown. […] Lysates were cleared by centrifugation, measured by quantitative protein assay (Bio-Rad, München, Germany) and subjected to SDS gel electrophoresis. […] INA-6 cells were washed in PBS, incubated for 15 minutes in 100 ml binding buffer (10 mM HEPES/NaOH, pH 7.4, 140 mM NaCl, 2.5 mM CaCl2) containing 2.5 mL annexin V-FITC mix and 1 mg/ml PI and analyzed by flow cytometry (FACSCalibur/CELLQuest; Becton Dickinson, Heidelberg, Germany). […] Raw data of three independent experiments have been calculated to establish means, standard deviation and dose-effect curves of trans-7b."}}, "note": "“Also recorded” adds a separate entry of the source.", "data": [{"smiles": "COc1ccc(C2C(C(=O)Nc3cccc(C)n3)c3ccccc3C(=O)N2c2ccccc2)cc1", "note": "(stereo not drawn) [trans-7b, trans-3-(4-Methoxyphenyl)-N-(6-methylpyridin-2-yl)-1-oxo-2-phenyl-1,2,3,4-tetrahydroisoquinoline-4-carboxamide]", "values": [{"measurement": "viability of INA-6 cells in comparison with the DMSO control (100%)", "setting": "[1]; 0.6 μM, 24 hours, Annexin V/propidium iodide", "value": "drastically decreased"}, {"measurement": "sensitivity of INA-6 tumor cells (viability, dose-effect curves)", "setting": "[1]; 72 hours, three independent experiments", "value": "highly sensitive (in a low micromolar range)"}, {"measurement": "EC50", "setting": "[1]; Homo sapiens, INA-6, 72 h, INA-6 multiple myeloma cells, 72 hours of treatment, viable cell fraction, mean of at least three determinations, read-out: INA-6 EC50(±sdv)", "value": 0.41, "unit": "µM"}, {"measurement": "cytotoxic effect in primary PBMCs (viability)", "setting": "[2]", "value": "lack any cytotoxic effect even in higher micromolar concentrations"}, {"measurement": "caspase 9 and 3 cleavage/activation (PARP cleavage)", "setting": "[3]", "value": "activation of the caspases 9 and 3; also recorded: sequential caspase 9 and 3 cleavage leading to their activation"}]}]}
